In US9221767B2, “Substituted phthalazinones as rock inhibitors” (BRISTOL-MYERS SQUIBB COMPANY, priority 2013, dated 2015):
Like-named read-outs stand apart in the source and are kept apart here.

Legend:
[1] = biological target: ROCK1 (Homo sapiens (Human), UniProt Q13464); assay: ROCK assay (LabChip peptide phosphorylation), ROCK1; assay type: biochemical; settings: 5 μM ATP, 1.5 μM peptide substrate
Experimental: (§1) The effectiveness of compounds of the present invention as ROCK inhibitors can be determined in a 30 μL assay containing 20 mM HEPES, pH 7.5, 20 mM MgCl2, 0.015% Brij-35, 4 mM DTT, 5 μM ATP and 1.5 μM peptide substrate (FITC-AHA-[…]-OH). Compounds were dissolved in DMSO so that the final concentration of DMSO was <2%, and the reaction was initiated with Rho kinase variants. After incubation, the reaction was terminated by the addition of EDTA and the phosphorylated and non-phosphorylated peptides separated using a LabChip 3000 Reader (Caliper Life Sciences). […] Compounds were tested in dose-response format, and the inhibition of kinase activity was calculated at each concentration of compound. The inhibition data were fit using a curve-fitting program to determine the IC50; i.e., the concentration of compound required to inhibit 50% of kinase activity.”

[2] = biological target: ROCK2 (Homo sapiens (Human), UniProt O75116); assay: ROCK assay (LabChip peptide phosphorylation), ROCK2; assay type: biochemical; settings: 5 μM ATP, 1.5 μM peptide substrate
Experimental: as §1

[3] = system: IL-1 beta-induced coronary stenosis; settings: long term treatment; cited from earlier work
[4] = system: rat stroke model; settings: in vivo; cited from earlier work
[5] = system: Dahl salt-sensitive rats; settings: rat, in vivo; cited from earlier work
[6] = system: neointimal formation in rats; settings: cited from earlier work
[7] = system: spontaneously hypertensive rat, renal hypertensive rat and deoxycortisone acetate salt hypertensive rat models; settings: cited from earlier work

ROCK2, sequence (O75116 whole entry, species assumed): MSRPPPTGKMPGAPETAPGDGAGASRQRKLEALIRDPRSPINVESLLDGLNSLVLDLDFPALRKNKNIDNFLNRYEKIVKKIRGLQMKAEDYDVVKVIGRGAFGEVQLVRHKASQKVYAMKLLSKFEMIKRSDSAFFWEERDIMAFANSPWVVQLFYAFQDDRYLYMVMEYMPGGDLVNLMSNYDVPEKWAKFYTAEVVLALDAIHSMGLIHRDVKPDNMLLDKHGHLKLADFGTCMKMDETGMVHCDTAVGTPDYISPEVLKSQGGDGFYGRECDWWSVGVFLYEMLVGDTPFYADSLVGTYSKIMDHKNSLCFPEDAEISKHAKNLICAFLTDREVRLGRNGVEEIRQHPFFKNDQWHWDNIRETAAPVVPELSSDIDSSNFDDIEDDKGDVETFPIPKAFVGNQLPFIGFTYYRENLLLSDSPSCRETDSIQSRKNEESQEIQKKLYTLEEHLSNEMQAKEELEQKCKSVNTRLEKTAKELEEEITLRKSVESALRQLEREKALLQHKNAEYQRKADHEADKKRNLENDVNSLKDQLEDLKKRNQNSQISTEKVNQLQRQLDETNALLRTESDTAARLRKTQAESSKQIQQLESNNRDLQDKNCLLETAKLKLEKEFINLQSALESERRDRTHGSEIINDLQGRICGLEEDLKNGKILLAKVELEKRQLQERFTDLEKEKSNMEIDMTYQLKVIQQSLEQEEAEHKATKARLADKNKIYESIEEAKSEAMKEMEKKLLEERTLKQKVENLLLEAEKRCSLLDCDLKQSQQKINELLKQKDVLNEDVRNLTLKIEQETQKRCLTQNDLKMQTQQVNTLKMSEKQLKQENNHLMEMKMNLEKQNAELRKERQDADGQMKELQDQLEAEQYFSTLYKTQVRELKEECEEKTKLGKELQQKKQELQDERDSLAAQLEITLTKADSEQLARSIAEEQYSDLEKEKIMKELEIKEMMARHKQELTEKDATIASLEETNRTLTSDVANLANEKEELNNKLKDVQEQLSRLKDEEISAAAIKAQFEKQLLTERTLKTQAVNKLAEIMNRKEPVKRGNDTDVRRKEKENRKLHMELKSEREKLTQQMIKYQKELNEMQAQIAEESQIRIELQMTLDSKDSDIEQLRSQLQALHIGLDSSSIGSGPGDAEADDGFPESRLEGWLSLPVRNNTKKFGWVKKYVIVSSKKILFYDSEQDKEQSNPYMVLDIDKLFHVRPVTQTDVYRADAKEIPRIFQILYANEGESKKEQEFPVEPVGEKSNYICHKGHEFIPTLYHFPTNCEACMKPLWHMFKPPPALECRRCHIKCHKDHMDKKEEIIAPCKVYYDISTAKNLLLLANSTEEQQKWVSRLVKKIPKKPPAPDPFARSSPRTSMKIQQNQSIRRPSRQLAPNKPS
ROCK1, sequence (Q13464 whole entry, species assumed): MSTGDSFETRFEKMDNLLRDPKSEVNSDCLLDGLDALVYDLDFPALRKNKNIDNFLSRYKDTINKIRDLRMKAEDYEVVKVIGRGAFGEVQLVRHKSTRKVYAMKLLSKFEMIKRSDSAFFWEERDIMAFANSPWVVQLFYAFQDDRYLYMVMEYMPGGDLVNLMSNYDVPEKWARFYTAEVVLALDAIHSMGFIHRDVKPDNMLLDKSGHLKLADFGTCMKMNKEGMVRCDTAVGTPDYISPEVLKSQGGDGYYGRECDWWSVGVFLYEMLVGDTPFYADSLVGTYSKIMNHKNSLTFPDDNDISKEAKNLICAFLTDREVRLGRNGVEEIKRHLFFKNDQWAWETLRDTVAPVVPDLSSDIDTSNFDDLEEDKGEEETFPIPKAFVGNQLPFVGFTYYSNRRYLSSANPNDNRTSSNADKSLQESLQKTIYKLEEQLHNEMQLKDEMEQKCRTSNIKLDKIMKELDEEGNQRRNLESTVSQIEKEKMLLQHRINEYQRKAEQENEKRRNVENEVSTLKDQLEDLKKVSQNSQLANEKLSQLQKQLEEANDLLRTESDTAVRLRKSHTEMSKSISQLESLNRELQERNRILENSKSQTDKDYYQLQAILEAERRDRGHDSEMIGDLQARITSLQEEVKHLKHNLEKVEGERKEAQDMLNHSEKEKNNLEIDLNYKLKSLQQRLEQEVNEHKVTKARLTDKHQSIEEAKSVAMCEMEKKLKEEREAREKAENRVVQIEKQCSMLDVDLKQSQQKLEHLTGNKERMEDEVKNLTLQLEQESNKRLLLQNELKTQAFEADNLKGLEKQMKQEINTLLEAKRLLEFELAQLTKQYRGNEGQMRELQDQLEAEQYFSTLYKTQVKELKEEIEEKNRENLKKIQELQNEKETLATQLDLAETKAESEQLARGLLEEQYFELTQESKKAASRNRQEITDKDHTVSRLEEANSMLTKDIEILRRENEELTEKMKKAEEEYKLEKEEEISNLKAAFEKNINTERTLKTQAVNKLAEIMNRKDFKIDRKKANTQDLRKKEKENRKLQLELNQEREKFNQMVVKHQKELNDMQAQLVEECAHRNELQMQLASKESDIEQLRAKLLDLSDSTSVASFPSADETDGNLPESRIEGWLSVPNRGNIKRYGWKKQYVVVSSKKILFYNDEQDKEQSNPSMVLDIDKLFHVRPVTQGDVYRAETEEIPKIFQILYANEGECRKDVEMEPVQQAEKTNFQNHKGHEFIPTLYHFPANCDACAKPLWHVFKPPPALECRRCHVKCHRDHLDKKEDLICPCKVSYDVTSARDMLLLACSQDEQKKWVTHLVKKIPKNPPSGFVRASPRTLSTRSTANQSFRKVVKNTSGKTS

Row | IC50 [1] | IC50 [2] | SMILES | also measured
1 | 544 nM | 225 nM | Cn1ccnc1C(=O)Nc1ccc(-c2n[nH]c(=O)c3ccccc23)cc1 [Example 52] | –
2 | 11900 nM | 553 nM | O=C(Cc1ccc(-c2n[nH]c(=O)c3ccccc23)cc1)N1CCCc2ccccc21 [Example 34] | –
3 | 16200 nM | 9730 nM | COC[C@@H]1CCCN1C(=O)Cc1ccc(-c2n[nH]c(=O)c3ccccc23)cc1 [Example 13] | –
4 | – | – | O=S(=O)(c1cccc2cnccc12)N1CCCNCC1 [fasudil] | coronary constrictive remodeling [3]: promote a regression of coronary constrictive remodeling; coronary stenosis [3]: progressively reduce coronary stenosis; infarct size [4]: reduce; neurologic deficit [4]: reduce
5 | 49 nM | 2.1 nM | O=C(Nc1ccc(-c2n[nH]c(=O)c3ccccc23)cc1)c1ccc(N2CCCCC2)cc1 [Example 61] | –
6 | – | – | C[C@@H](N)[C@H]1CC[C@H](C(=O)Nc2ccncc2)CC1 [Example Y-27632, Y-27632] | ventricular hypertrophy, fibrosis and function [5]: improve ventricular hypertrophy, fibrosis and function; neointimal formation [6]: inhibited neointimal formation; blood pressure ([7]; control rats): only a minor effect on blood pressure; blood pressure ([7]; three rat models of hypertension): significantly decrease blood pressure
7 | 6480 nM | 5830 nM | O=C(Cc1ccc(-c2n[nH]c(=O)c3ccccc23)cc1)NC1CCC1 [Example 19] | –
8 | 729 nM | 17 nM | O=C(Cc1ccc(-c2n[nH]c(=O)c3ccccc23)cc1)Nc1nc2ccccc2o1 [Example 10] | –
9 | 23 nM | 1.2 nM | CCOc1ccc2c(c1)N(C(=O)Cc1ccc(-c3n[nH]c(=O)c4ccccc34)cc1)CC2 [Example 33] | –
10 | 35 nM | 0.3 nM | CN(C)c1ccc(C(=O)Nc2ccc(-c3n[nH]c(=O)c4ccccc34)cc2)cc1 [Example 58] | –
11 | 670 nM | 39 nM | O=C(Nc1ccc(-c2n[nH]c(=O)c3ccccc23)cc1)c1csc(-c2ccc(C(F)(F)F)cc2)n1 [Example 48] | –
12 | 679 nM | 30 nM | O=C(Cc1ccc(-c2n[nH]c(=O)c3ccccc23)cc1)N1Cc2ccc(F)cc2C1 [Example 2, 4-(4-(2-(5-fluoroisoindolin-2-yl)-2-oxoethyl)phenyl)phthalazin-1(2H)-one] | –

Row | SMILES | IC50 [1] | IC50 [2] | also measured
13 | O=C(Nc1ccc(-c2n[nH]c(=O)c3ccccc23)cc1)N1CCc2ccccc21 [Example 76, N-(4-(4-oxo-3,4-dihydrophthalazin-1-yl)phenyl)indoline-1-carboxamide] | 20 nM | 1.2 nM | –
14 | O=C(Oc1ccc(-c2n[nH]c(=O)c3ccccc23)cc1)N1CCC(c2ccccc2)C1 (stereo not shown) [Example 69, 4-(4-oxo-3,4-dihydrophthalazin-1-yl)phenyl 3-phenylpyrrolidine-1-carboxylate] | 50000 nM | 894 nM | –
15 | O=C(Nc1ccc(-c2n[nH]c(=O)c3ccccc23)cc1)c1ccccc1 [Example 67] | 175 nM | 14 nM | –
